27 compounds from patent US20220213061A9, “HETEROCYCLIC COMPOUNDS FOR MODULATING NR2F6” (TES Pharma S.r.l., priority 2020, published 2022) can be followed below.

A word on the EC50: it is the concentration giving half of the maximal effect.

The target in this assay is T1, recombinant human NR2F6 protein (Homo sapiens, UniProt P10588).
T1 sequence (P10588 1-404): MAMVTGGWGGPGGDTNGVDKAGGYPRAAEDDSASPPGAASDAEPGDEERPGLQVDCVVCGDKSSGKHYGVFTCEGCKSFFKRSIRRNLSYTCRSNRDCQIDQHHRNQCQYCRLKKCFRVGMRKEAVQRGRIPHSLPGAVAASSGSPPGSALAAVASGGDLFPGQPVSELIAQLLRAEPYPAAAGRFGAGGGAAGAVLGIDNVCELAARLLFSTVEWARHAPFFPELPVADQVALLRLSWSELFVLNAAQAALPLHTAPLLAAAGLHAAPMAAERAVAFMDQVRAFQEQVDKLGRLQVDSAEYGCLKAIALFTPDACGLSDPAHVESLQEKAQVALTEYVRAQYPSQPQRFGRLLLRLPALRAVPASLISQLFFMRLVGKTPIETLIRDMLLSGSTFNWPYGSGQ
Nature of the assay: Biochemical NR2F6 binding assay (EnSpire label-free). To be noted: label-free binding to immobilized purified recombinant human NR2F6; ligands 1 nM to 100 uM, 1% DMSO. As for the experimental part:
Purified recombinant human NR2F6 protein was dissolved in immobilization buffer at pH 4.5 and then immobilized in EnSpire-LFB High-Sensitivity User-Activated Plates at the concentration of 50 μg/well plate and left in incubation for 16 h at 4° C. Wells with only immobilization buffer were used as negative control to check the protein coating efficiency. NR2F6 ligands were resuspended in DMSO at the concentration of 10 mM, then dispensed into a plate containing assay buffer at concentrations ranging from 1 nM to 100 uM using an HP-dispenser. DMSO was normalized at the 1% of volume of each well. The final readings were taken over a period of 30 minutes. The label-free responses were measured as shifts in reflected wavelength and are expressed in picometers (pm). Results were analyzed using the EnSpire label-free user interface software, and EC50 and graphs were generated using GraphPad PRISM software. In the tables below, A is <1 μM; B is 1 to 10 μM; C is 10 to 50 μM; and D is >50 μM.

SMILES strings stand for the structures. Counter-ions that a name gives are not always drawn.

On to `O=C(Nc1cccc(Oc2ccc(C(F)(F)F)nc2)c1)[C@H]1CNC[C@@H]1c1ccccc1` (racemic) [Compound I-104, (±)-trans-4-Phenyl-N-(3-{[6-(trifluoromethyl)pyridin-3-yl]oxy}phenyl) pyrrolidine-3-carboxamide dihydrochloride], for which the EC50 was < 1 µM.
As for `O=C(N[C@H]1C[C@H](c2ccccc2)C1)[C@@H]1CNC[C@H]1c1ccccc1` [Compound I-117, (3S,4R)-4-Phenyl-N-(trans-3-phenylcyclobutyl)pyrrolidine-3-carboxamide hydrochloride], the figure is 1 to 10 µM; as for `O=C(Nc1cccc2cnccc12)[C@H]1CNC[C@@H]1c1ccc(F)cc1` [Compound I-81, (3R,4S)-4-(4-Fluorophenyl)-N-(isoquinolin-5-yl)pyrrolidine-3-carboxamide dihydrochloride], > 50 µM.
For `O=C(Nc1cc2ccccc2cn1)[C@@H]1CNC[C@H]1c1ccccc1` [Compound I-43, (3S,4R)—N-(Isoquinolin-3-yl)-4-phenylpyrrolidine-3-carboxamide dihydrochloride], the half-maximal effective concentration (EC50) was in the range of 1 to 10 µM.
As for `S=C(Nc1cccc2cnccc12)O[C@@H]1CNC[C@@H]1c1ccccc1` (racemic) [Compound I-3, (±)-cis-O-(4-Phenylpyrrolidin-3-yl) isoquinolin-5-ylcarbamothioate], the EC50 lay within 10 to 50 µM.
With `O=C(Nc1ccc(-c2cccnc2)cc1)[C@@H]1CNC[C@H]1c1ccccc1` (racemic) [Compound I-25, (±)-trans-4-Phenyl-N-[4-(pyridin-3-yl)phenyl]pyrrolidine-3-carboxamide dihydrochloride], the EC50 lay within 1 to 10 µM.
For the compound `O=C(c1ccccc1)c1cccc(NC(=O)[C@H]2CNC[C@@H]2c2ccccc2)c1` (racemic) [Compound I-94, (±)-trans-4-Phenyl-N-[3-(phenylcarbonyl)phenyl]pyrrolidine-3-carboxamide hydrochloride], the EC50 lay within 1 to 10 µM.
For the compound `c1ccc([C@@H]2CNC[C@@H]2Oc2cccc3cnccc23)cc1` (racemic) [Compound I-61, 5-{[(±)-cis-4-Phenylpyrrolidin-3-yl]oxy}isoquinoline dihydrochloride], the EC50 lay within 1 to 10 µM.
Turning to `O=C(Nc1cccc(-c2cncnc2)c1)[C@@H]1CNC[C@H]1c1ccccc1` (racemic) [Compound I-53, (±)-trans-4-Phenyl-N-[3-(pyrimidin-5-yl)phenyl]pyrrolidine-3-carboxamide trihydrochloride], the 50% effective concentration (EC50) is > 50 µM.
For `O=C(Nc1cccc2ccccc12)[C@@H]1CNC[C@H]1c1ccccc1` [Compound I-75, (3S,4R)—N-(Naphthalen-1-yl)-4-phenylpyrrolidine-3-carboxamide hydrochloride], the EC50 lay within 1 to 10 µM.
Turning to `O=C(NCc1cccc2cnccc12)[C@@H]1CNC[C@H]1c1ccccc1` [Compound I-95, (3S,4R)—N-(Isoquinolin-5-ylmethyl)-4-phenylpyrrolidine-3-carboxamide dihydrochloride], the EC50 lay in the range of 1 to 10 µM.
In the case of `O=C(Nc1ncc(-c2cccnc2)s1)[C@@H]1CNC[C@H]1c1ccccc1` (racemic) [Compound I-20, (±)-trans-4-Phenyl-N-[5-(pyridin-3-yl)-1,3-thiazol-2-yl]pyrrolidine-3-carboxamide], the EC50 is 1 to 10 µM.
As for `O=C(Nc1cccnc1)[C@H]1CNC[C@@H]1c1ccccc1` (racemic) [Compound I-19, (±)-trans-4-Phenyl-N-(pyridin-3-yl)pyrrolidine-3-carboxamide dihydrochloride], the figure is > 50 µM.
As for `O=C(Nc1ccc(-c2ccc(C(F)(F)F)nc2)cc1)[C@@H]1CNC[C@H]1c1ccccc1` [Compound I-103, (3S,4R)-4-Phenyl-N-[4-[6-(trifluoromethyl)pyridin-3-yl]phenyl]pyrrolidine-3-carboxamide hydrochloride], the figure is < 1 µM; as for `O=C(Nc1cccc(-c2ccccc2)c1)[C@@H]1CNC[C@H]1c1cccc(F)c1` (racemic) [Compound I-27, (±)-trans-N-(Biphenyl-3-yl)-4-(3-fluorophenyl)pyrrolidine-3-carboxamide hydrochloride], > 50 µM.
As for `c1ccc([C@H]2CNC[C@@H]2OCc2cccc3cnccc23)cc1` (racemic) [Compound I-73, 5-({[(±)-trans-4-Phenylpyrrolidin-3-yl]oxy}methyl)isoquinoline dihydrochloride], the EC50 was > 50 µM.
Turning to `O=C(Nc1cccc2ccccc12)[C@@H]1CNC[C@H]1c1ccccc1` (racemic) [Compound I-16, (±)-trans-N-(Naphthalen-1-yl)-4-phenylpyrrolidine-3-carboxamide hydrochloride], the concentration for a half-maximal effect (EC50) lay within 1 to 10 µM.
Regarding `O=S(=O)(N[C@@H]1CNC[C@H]1c1ccccc1)c1cccc2cnccc12` (racemic) [Compound I-8, (±)-trans-N-(4-Phenylpyrrolidin-3-yl)isoquinoline-5-sulfonamide], the EC50 was > 50 µM.
Turning to `O=C(Nc1cccc(-c2ccccc2)c1)[C@H]1CNC[C@@H]1c1ccccc1` [Compound I-37, (3R,4S)—N-(Biphenyl-3-yl)-4-phenylpyrrolidine-3-carboxamide hydrochloride], the half-maximal effective concentration (EC50) was 1 to 10 µM.
`O=C(Nc1cc2ccccc2cn1)[C@@H]1CNC[C@H]1c1ccccc1` (racemic) [Compound I-14, (±)-trans-N-(Isoquinolin-3-yl)-4-phenylpyrrolidine-3-carboxamide dihydrochloride]: the EC50 was 1 to 10 µM.
Take `Cc1nccc2c(NC(=O)[C@H]3CNC[C@@H]3c3ccc(C(F)(F)F)cc3)cccc12` [Compound I-96, (3R,4S)—N-(1-Methylisoquinolin-5-yl)-4-[4-(trifluoromethyl)phenyl]pyrrolidine-3-carboxamide dihydrochloride]: the concentration giving a half-maximal response (EC50) fell in the range of 1 to 10 µM.
For `CN(C(=O)[C@@H]1CNC[C@H]1c1ccccc1)c1cccc(-c2cccnc2)c1` (racemic) [Compound I-47, (±)-trans-N-Methyl-4-phenyl-N-[3-(pyridin-3-yl)phenyl]pyrrolidine-3-carboxamide], the half-maximal effective concentration (EC50) was > 50 µM.
Consider `O=C(Nc1cccc(Oc2ccncc2)c1)[C@H]1CNC[C@@H]1c1ccccc1` (racemic) [Compound I-98, (±)-trans-4-Phenyl-N-[3-(pyridin-4-yloxy)phenyl]pyrrolidine-3-carboxamide dihydrochloride], for which the 50% effective concentration (EC50) is > 50 µM.
Turning to `O=C(Nc1cccc(-c2ccccc2)c1)[C@@H]1CNC[C@H]1c1ccccc1` (racemic) [Compound I-13, (±)-trans-N-(Biphenyl-3-yl)-4-phenylpyrrolidine-3-carboxamide], the EC50 fell in the range of 1 to 10 µM.
On to `O=C(Nc1cccc2cnccc12)[C@H]1CNC[C@@H]1c1ccc(C(F)(F)F)cc1` [Compound I-82, (3R,4S)-4-(4-Trifluorophenyl)-N-(isoquinolin-5-yl)pyrrolidine-3-carboxamide dihydrochloride], for which the concentration for a half-maximal effect (EC50) is > 50 µM.
In the case of `O=C(Nc1cccc(Nc2ccccc2)c1)[C@H]1CNC[C@@H]1c1ccccc1` (racemic) [Compound I-89, (±)-trans-4-Phenyl-N-[3-(phenylamino)phenyl]pyrrolidine-3-carboxamide hydrochloride], the EC50 is < 1 µM.
Regarding `O=C(Nc1cccc(-c2cccnc2)c1)c1c[nH]cc1-c1ccccc1` [Compound I-51, 4-Phenyl-N-[3-(pyridin-3-yl)phenyl]-1H-pyrrole-3-carboxamide], the concentration giving a half-maximal response (EC50) is > 50 µM.
